This is an account of results in a polymer gas permeability compilation.

Each structure is given as a SMILES string.

Compound `*C(C(=O)OC(C)C)C(*)C(=O)OC(C)(C)C` (repeat unit) returned an H2 permeability of 133 Barrer, an N2 permeability of 9 Barrer and an O2 permeability of 21 Barrer.

`*OC(=O)c1ccc(C(=O)Oc2c(C)cc(C(C)(C)c3cc(C)c(O*)c(C)c3)cc2C)cc1` (repeat unit) yielded a CH4 permeability of 1.32 Barrer, a CO2 permeability of 4.7 Barrer, an N2 permeability of 1.43 Barrer and an O2 permeability of 7.3 Barrer.

The compound `*CC(*)(C)C(=O)OCC` (repeat unit) had a CH4 permeability of 0.347 Barrer, a CO2 permeability of 6.03 Barrer, an H2 permeability of 21.8 Barrer and an N2 permeability of 0.276 Barrer. Besides, the O2 permeability came out at 1.52 Barrer.

As for `*c1ccc(Oc2ccc(C(c3ccccc3)(c3ccccc3)c3ccc(Oc4ccc(*)cc4)cc3)cc2)cc1` (repeat unit), the CH4 permeability came out at 0.14 Barrer, the CO2 permeability was determined as 9.57 Barrer, the N2 permeability came to 0.47 Barrer and the O2 permeability turned out to be 2.26 Barrer.

For the compound `*Oc1ccc(Oc2cccc(*)c2C#N)c(-c2cc(C(F)(F)F)cc(C(F)(F)F)c2)c1` (repeat unit), the CH4 permeability is 0.83 Barrer, the CO2 permeability is 19 Barrer, the H2 permeability came out at 35 Barrer and the N2 permeability amounted to 1.12 Barrer. For the same compound, the O2 permeability came to 6.6 Barrer.

Regarding `*c1c(C)cc(Cc2cc(C)c(-n3c(=O)c4cc5c(=O)n(*)c(=O)c5cc4c3=O)c(C)c2)cc1C` (repeat unit), the CH4 permeability came out at 8.21 Barrer, the CO2 permeability was determined as 97.6 Barrer, the N2 permeability amounted to 7.08 Barrer and the O2 permeability was 27.4 Barrer.

Regarding `*Oc1ccc(C(c2ccc(Oc3ccc(C(=O)c4ccc(C(C)(C)c5ccc(C(=O)c6ccc(*)cc6)cc5)cc4)cc3)cc2)(C(F)(F)F)C(F)(F)F)cc1` (repeat unit), the CH4 permeability is 0.345 Barrer, the CO2 permeability came out at 8 Barrer, the H2 permeability came out at 22.8 Barrer and the N2 permeability was 0.44 Barrer. The same compound yielded an O2 permeability of 2.4 Barrer.

Take `*c1ccc(Oc2ccc(C(c3ccc(Oc4ccc(N5C(=O)c6ccc(C(=O)c7ccc8c(c7)C(=O)N(*)C8=O)cc6C5=O)cc4)cc3)(C(F)(F)F)C(F)(F)F)cc2)cc1` (repeat unit): the CH4 permeability was found to be 0.105 Barrer, the CO2 permeability was 4.67 Barrer, the H2 permeability stood at 16.1 Barrer and the N2 permeability came to 0.195 Barrer. This compound returned an O2 permeability of 1.14 Barrer.

In turn, `*CC(O)CO*` (repeat unit) had a CO2 permeability of 0.012 Barrer, an H2 permeability of 0.0228 Barrer and an O2 permeability of 0.0038 Barrer.

For the compound `*Oc1ccc(S(=O)(=O)c2ccc(Oc3ccc(C(C)(c4ccccc4)c4ccc(*)cc4)cc3)cc2)cc1` (repeat unit), the CH4 permeability was determined as 0.32 Barrer, the CO2 permeability is 8.12 Barrer, the N2 permeability was 0.278 Barrer and the O2 permeability amounted to 1.56 Barrer.

As for `*NCC(C)(C)CC(C)CCNC(=O)c1ccc(C(*)=O)cc1` (repeat unit), the CH4 permeability came out at 0.018 Barrer, the CO2 permeability amounted to 0.33 Barrer, the N2 permeability turned out to be 0.016 Barrer and the O2 permeability came to 0.092 Barrer.

The compound `*c1cc2c(cc1C)-c1cc(C)c(N3C(=O)c4ccc(S(=O)(=O)c5ccc6c(c5)C(=O)N(*)C6=O)cc4C3=O)cc1S2(=O)=O` (repeat unit) came in with a CH4 permeability of 0.244 Barrer, a CO2 permeability of 14.1 Barrer, an H2 permeability of 45.4 Barrer and an N2 permeability of 0.37 Barrer. For the same compound, the O2 permeability is 3.29 Barrer.

In the case of `*Oc1ccc(S(=O)(=O)c2ccc(Oc3ccc(C4(c5ccc(*)cc5)c5ccccc5-c5ccccc54)cc3)cc2)cc1` (repeat unit), the CH4 permeability was determined as 0.531 Barrer, the CO2 permeability turned out to be 13.8 Barrer, the N2 permeability is 0.484 Barrer and the O2 permeability is 2.76 Barrer.

Consider `*c1ccc(N2C(=O)c3ccc(C(c4ccc5c(c4)C(=O)N(*)C5=O)(C(F)(F)F)C(F)(F)F)cc3C2=O)cc1` (repeat unit), for which the CH4 permeability turned out to be 1.31 Barrer, the CO2 permeability is 62 Barrer, the H2 permeability worked out at 107 Barrer and the N2 permeability was 2.57 Barrer. Moreover, the O2 permeability came to 12.7 Barrer.

Regarding `*c1c(C)cc(-c2cc(C)c(-n3c(=O)c4cc5oc6cc7c(cc6oc5cc4c3=O)C3(C)CCC7(C)c4cc5oc6cc7c(=O)n(*)c(=O)c7cc6oc5cc43)c3ccccc23)c2ccccc12` (repeat unit), the CH4 permeability amounted to 180 Barrer, the CO2 permeability worked out at 3000 Barrer, the H2 permeability was determined as 2490 Barrer and the N2 permeability turned out to be 141 Barrer. The compound further showed an O2 permeability of 583 Barrer.

`*Oc1c(C)cc(C(C)(C)c2cc(C)c(OC(=O)c3cccc(C(*)=O)c3)c(Br)c2)cc1Br` (repeat unit) gave a CH4 permeability of 0.151 Barrer, a CO2 permeability of 5.45 Barrer, an H2 permeability of 23.3 Barrer and an N2 permeability of 0.219 Barrer. Besides, the O2 permeability came to 1.52 Barrer.

`*CCCCO*` (repeat unit) gave a CH4 permeability of 22.5 Barrer, a CO2 permeability of 170 Barrer, an H2 permeability of 36 Barrer and an N2 permeability of 8.85 Barrer. The compound also showed an O2 permeability of 21.5 Barrer.

Compound `*Oc1ccc(S(=O)(=O)c2ccc(Oc3c(C)cc(-c4cc(C)c(*)c(C)c4)cc3C)cc2)cc1` (repeat unit) displayed a CH4 permeability of 1.27 Barrer, a CO2 permeability of 31.8 Barrer, an N2 permeability of 1.21 Barrer and an O2 permeability of 5.8 Barrer.

As to `*c1c(C)cc2c(c1C)C1c3ccccc3C2c2cc(C)c(-n3c(=O)c4cc5c(=O)n(*)c(=O)c5cc4c3=O)c(C)c21` (repeat unit), the CH4 permeability was 238 Barrer, the CO2 permeability came out at 3360 Barrer, the H2 permeability is 2380 Barrer and the N2 permeability was 180 Barrer. This compound also displayed an O2 permeability of 680 Barrer.

In turn, `*c1c(C)cc(C)c(N2C(=O)c3ccc(C(c4ccc5c(c4)C(=O)N(*)C5=O)(C(F)(F)F)C(F)(F)F)cc3C2=O)c1C` (repeat unit) displayed a CH4 permeability of 20.4 Barrer, a CO2 permeability of 422 Barrer, an H2 permeability of 435 Barrer and an N2 permeability of 24.3 Barrer. For the same compound, the O2 permeability was determined as 87.7 Barrer.

`*O[Si](*)(C)CCC` (repeat unit) came in with a CH4 permeability of 570 Barrer, a CO2 permeability of 2300 Barrer, an N2 permeability of 182 Barrer and an O2 permeability of 394 Barrer.

Turning to `*Oc1ccc(C(C)(C)c2ccc(OC(=O)c3cccc(C(*)=O)c3)c(C(C)C)c2)cc1C(C)C` (repeat unit), the CH4 permeability amounted to 0.305 Barrer, the CO2 permeability was 5.16 Barrer, the H2 permeability came out at 18.9 Barrer and the N2 permeability came out at 0.273 Barrer. Moreover, the O2 permeability was 1.64 Barrer.

`*c1ccc(C(C)(C)c2ccc(N3C(=O)c4ccc(Oc5ccc(Oc6ccc7c(c6)C(=O)N(*)C7=O)cc5)cc4C3=O)cc2)cc1` (repeat unit) registered a CH4 permeability of 0.0692 Barrer, a CO2 permeability of 2.65 Barrer, an H2 permeability of 9.33 Barrer and an N2 permeability of 0.104 Barrer. The O2 permeability is 0.586 Barrer.

As to `*c1ccc(-c2ccc(Oc3ccc4c(c3)C(C)(c3ccc(Oc5ccc(-c6ccc(-n7c(=O)c8cc9c(=O)n(*)c(=O)c9cc8c7=O)cc6)cc5C(F)(F)F)cc3)CC4(C)C)c(C(F)(F)F)c2)cc1` (repeat unit), the CH4 permeability was 1.52 Barrer, the CO2 permeability stood at 44.7 Barrer, the N2 permeability was found to be 2.36 Barrer and the O2 permeability amounted to 12.2 Barrer.

In turn, `*/C(C)=C(/*)[Si](C)(C)C` (repeat unit) yielded a CH4 permeability of 15000 Barrer, a CO2 permeability of 28600 Barrer, an H2 permeability of 15000 Barrer and an N2 permeability of 6600 Barrer. This compound displayed an O2 permeability of 9000 Barrer.

As to `*C(C)=C(*)CC(C)C` (repeat unit), the CH4 permeability is 190 Barrer, the CO2 permeability was 900 Barrer, the H2 permeability is 750 Barrer and the N2 permeability was 93 Barrer. Also, the O2 permeability was found to be 245 Barrer.

`*Oc1c(C)cc(C(c2cc(C)c(OC(*)=O)c(C)c2)(C(F)(F)F)C(F)(F)F)cc1C` (repeat unit) displayed a CH4 permeability of 2.79 Barrer, a CO2 permeability of 71.5 Barrer, an H2 permeability of 126 Barrer and an N2 permeability of 4.75 Barrer. Moreover, the O2 permeability was determined as 20.9 Barrer.

`*Oc1ccc(-c2c(-c3ccccc3)c(-c3ccccc3)c(-c3ccc4c(c3)Oc3c(C#N)c(*)c(*)c(C#N)c3O4)c(-c3ccccc3)c2-c2ccccc2)cc1O*` (repeat unit) yielded a CH4 permeability of 192 Barrer, a CO2 permeability of 2390 Barrer, an H2 permeability of 1000 Barrer and an N2 permeability of 107 Barrer. This compound showed an O2 permeability of 340 Barrer.

Compound `*c1ccc(Cc2ccc(N3C(=O)c4ccc(-c5ccc6c(c5)C(=O)N(*)C6=O)cc4C3=O)cc2)cc1` (repeat unit) had a CH4 permeability of 0.0532 Barrer, a CO2 permeability of 1.58 Barrer, an H2 permeability of 6.35 Barrer and an N2 permeability of 0.0221 Barrer. This compound also came in with an O2 permeability of 0.188 Barrer.

`*c1ccc2c(c1)nc1n2C(=O)c2ccc(C(=O)Oc3ccc(C(c4ccc(OC(=O)c5ccc6c(c5)C(=O)n5c-6nc6ccc(*)cc65)cc4)(C(F)(F)F)C(F)(F)F)cc3)cc2-1` (repeat unit) registered an H2 permeability of 13.3 Barrer, an N2 permeability of 0.155 Barrer and an O2 permeability of 0.977 Barrer.

For the compound `*Oc1ccc(C2(c3ccc(Oc4ccc(S(=O)(=O)c5ccc(*)cc5)cc4)cc3)OC(=O)c3ccccc32)cc1` (repeat unit), the CH4 permeability came to 0.143 Barrer, the CO2 permeability was 5.74 Barrer, the H2 permeability amounted to 10.1 Barrer and the N2 permeability amounted to 0.17 Barrer. This compound also came in with an O2 permeability of 1.2 Barrer.

Turning to `*c1ccc(-c2ccc(N3C(=O)c4ccc(C(=O)Oc5ccc(C(c6ccc(OC(=O)c7ccc8c(c7)C(=O)N(*)C8=O)cc6)(C(F)(F)F)C(F)(F)F)cc5)cc4C3=O)cc2)cc1` (repeat unit), the H2 permeability worked out at 5.01 Barrer, the N2 permeability is 0.0517 Barrer and the O2 permeability is 0.348 Barrer.

As for `*C=C(*)c1cccc(O[Si](C)(C)C(C)(C)C)c1` (repeat unit), the CH4 permeability was 12 Barrer, the CO2 permeability is 58 Barrer, the H2 permeability was found to be 64 Barrer and the N2 permeability was 7.6 Barrer. The O2 permeability is 17 Barrer.
